Data published in ChEMBL document CHEMBL1121605, “Aporphines. 30. (-)-N(2-chloroethyl)-10,11-dihydroxynor-aporphine (chloroethylnorapomorphine), a novel irreversible dopamine receptor antagonist” (J Med Chem, 1980).

How the values were obtained:
Type in all cases: functional
Rattus norvegicus [1] = species: Rattus norvegicus; test: % inhibition of cyclic AMP production in homogenates of rat corpus striatum pre-incubated with 0 uM of NCA and 0 uM of DA
Rattus norvegicus [2] = species: Rattus norvegicus; test: % inhibition of cyclic AMP production in homogenates of rat corpus striatum pre-incubated with 0 uM of NCA and 50 uM of DA
Rattus norvegicus [3] = species: Rattus norvegicus; test: % inhibition of cyclic AMP production in homogenates of rat corpus striatum pre-incubated with 10 uM of NCA and 0 uM of DA
Rattus norvegicus [4] = species: Rattus norvegicus; test: % inhibition of cyclic AMP production in homogenates of rat corpus striatum pre-incubated with 30 uM of NCA and 0 uM of DA
Rattus norvegicus [5] = species: Rattus norvegicus; test: % inhibition of cyclic AMP production in homogenates of rat corpus striatum pre-incubated with 30 uM of NCA and 50 uM of DA
Rattus norvegicus [6] = species: Rattus norvegicus; test: % inhibition of cyclic AMP production in homogenates of rat corpus striatum pre-incubated with 75 uM of NCA and 0 uM of DA
Rattus norvegicus [7] = species: Rattus norvegicus; test: % stimulation of cyclic AMP production in homogenates of rat corpus striatum pre-incubated with 0 uM of NCA and 50 uM of DA
Rattus norvegicus [8] = species: Rattus norvegicus; test: % stimulation of cyclic AMP production in homogenates of rat corpus striatum pre-incubated with 0 uM of NCA and 0 uM of DA
Rattus norvegicus [9] = species: Rattus norvegicus; test: % stimulation of cyclic AMP production in homogenates of rat corpus striatum preincubated with 30 uM of NCA and 0 uM of DA
Rattus norvegicus [10] = species: Rattus norvegicus; test: % stimulation of cyclic AMP production in homogenates of rat corpus striatum pre-incubated with 30 uM of NCA and 50 uM of DA
Rattus norvegicus [11] = species: Rattus norvegicus; test: % stimulation of cyclic AMP production in homogenates of rat corpus striatum pre-incubated with 75 uM of NCA and 0 uM of DA
Rattus norvegicus [12] = species: Rattus norvegicus; test: % stimulation of cyclic AMP production in homogenates of rat corpus striatum pre-incubated with 10 uM of NCA and 0 uM of DA

For `Oc1ccc2c(c1O)-c1cccc3c1[C@@H](C2)N(CCCl)CC3`, the inhibition (Rattus norvegicus [1]) was 0%, the inhibition (Rattus norvegicus [2]) was 2% and the inhibition (Rattus norvegicus [3]) was 16%. The inhibition (Rattus norvegicus [4]) was 56%, the inhibition (Rattus norvegicus [5]) was 3% and the inhibition (Rattus norvegicus [6]) was 92%. It also gave a Stimulation (Rattus norvegicus [7]) of 98%, a Stimulation (Rattus norvegicus [8]) of 100% and a Stimulation (Rattus norvegicus [9]) of 43.9%. For the same molecule, the Stimulation (Rattus norvegicus [10]) was 103%, the Stimulation (Rattus norvegicus [11]) was 8.1% and the Stimulation (Rattus norvegicus [12]) was 83.9%.
